Test: Inhibition of human recombinant IMPDH assessed as NADH formation by spectrophotometry; call rule not given here

SMILES: OCc1cc(Br)c(O)c(O)c1Cc1ccc(O)c(Br)c1 [AVRAINVILLEOL]
- IC50 (read-out: IC50): 18 µM

SMILES: OCc1c(Cc2ccc(O)c(Br)c2)c(O)c(O)c(Br)c1Cc1cc(Br)c(O)c(O)c1Cc1ccc(O)c(Br)c1 [ISORAWSONOL]
- IC50 (read-out: IC50): 7.4 µM

SMILES: COCc1cc(Br)c(O)c(O)c1Cc1cc(Br)c(O)c(Cc2cc(Br)c(O)c(O)c2Cc2ccc(O)c(Br)c2)c1 [RAWSONOL]
- IC50 (read-out: IC50): 10 µM

SMILES: COCc1cc(Br)c(O)c(O)c1Cc1ccc(O)c(Br)c1 [AVRAINVILLEOL METHYL ETHER]
- IC50: Not Active

SMILES: OCc1cc(O)c(O)c(Br)c1
- IC50: Not Active
